From US9249125B2, “Pyrazole derivatives as p38 MAP inhibitors” (RESPIVERT LIMITED, priority 2012, dated 2016)

Assays:
[1] = molecular target: p38 MAPKα (Homo sapiens (Human), UniProt Q16539); test: p38 MAPKα enzyme inhibition (FRET, Z-LYTE); assay type: biochemical
[2] = tested on: RSV A2; test: RSV induced F-protein expression in primary bronchial epithelial cells; assay type: cell-based, respiratory syncytical virus; conditions: for RSV induced F-protein in HBECs % Inhibition Observed: screened at concentrations up to 0.04 μg/mL; for IC50: human respiratory syncytial virus, Primary bronchial epithelial cell, read-out: RSV induced F-protein in HBECs IC50
Experimental: Normal human bronchial epithelial cells (NHBEC) grown in 96 well plates are infected with RSV A2 (Strain A2, HPA, Salisbury, UK) at an MOI of 0.001 in the LHC8 Media:RPMI-1640 (50:50) containing 15 mM magnesium chloride and incubated for 1 hr at 37° C. for adsorption. The cells are then washed with PBS (3×200 μL), fresh media (200 μL) is added and incubation continued for 4 days. Where appropriate, cells are pre-incubated with the compound or DMSO for 2 hr, and then added again after washout of the virus.
The cells are fixed with 4% formaldehyde in PBS solution (50 μL) for 20 min, washed with WB (3×200 μL), (washing buffer, PBS including 0.5% BSA and 0.05% Tween-20) and incubated with blocking solution (5% condensed milk in PBS) for 1 hr. Cells are then washed with WB (3×200 μL) and incubated for 1 hr at RT with anti-RSV (2F7) F-fusion protein antibody (40 μL) (mouse monoclonal, lot 798760, Cat. No. ab43812, Abcam) in 5% BSA in PBS-tween. After washing, cells are incubated with an HRP-conjugated secondary antibody solution (50 μL) in 5% BSA in PBS-Tween (lot 00053170, Cat. No. P0447, Dako) and then TMB substrate (50 μL) (substrate reagent pack, lot 269472, Cat. No. DY999, R&D Systems, Inc.) was added. This reaction is stopped by the addition of 2N H2SO4 (50 μL) and the resultant signal is determined colorimetrically (OD: 450 nm with a reference wavelength of 655 nm) in a microplate reader (Varioskan® Flash, ThermoFisher Scientific).
Cells are then washed and a 2.5% crystal violet solution (50 μL) (lot 8656, Cat. No. PL7000, Pro-Lab Diagnostics) is applied for 30 min. After washing with WB, 1% SDS in distilled water (100 μL) is added to each well, and plates are shaken lightly on the shaker for 1 hr prior to reading the absorbance at 595 nm. The measured OD450-655 readings are corrected to the cell number by dividing the OD450-655 by the OD595 readings. The percentage inhibition for each well is calculated and the IC50 value is calculated from the concentration-response curve generated from the serial dilutions of compound.

[3] = tested on: LPS-induced airways neutrophilia in mice; test: LPS-induced neutrophil accumulation in mice; assay type: in vivo; conditions: Test Substance at 0.2 mg/mL, intra tracheal, dosed 8 hr pre-LPS challenge
Experimental: Non-fasted Balb/c mice are dosed by the intra tracheal route with either vehicle, or the test substance at the indicated times (within the range 2-8 hr) before stimulation of the inflammatory response by application of an LPS challenge. At T=0, mice are placed into an exposure chamber and exposed to LPS (7.0 mL, 0.5 mg/mL solution in PBS) for 30 min). After a further 8 hr the animals are anesthetized, their tracheas cannulated and BALF extracted by infusing and then withdrawing from their lungs 1.0 mL of PBS via the tracheal catheter. Total and differential white cell counts in the BALF samples are measured using a Neubaur haemocytometer. Cytospin smears of the BALF samples are prepared by centrifugation at 200 rpm for 5 min at RT and stained using a DiffQuik stain system (Dade Behring). Cells are counted using oil immersion microscopy. Data for neutrophil numbers in BAL are shown as mean±S.E.M. (standard error of the mean). The percentage inhibition of neutrophil accumulation is calculated for each treatment relative to vehicle treatment.

[4] = tested on: PBMC cells; test: Cell mitosis assay; assay type: cell-based, human
Experimental: Peripheral blood mononucleocytes (PBMCs) from healthy subjects are separated from whole blood (Quintiles, London, UK) using a density gradient (Histopaque-1077, Sigma-Aldrich, Poole, UK). The PBMCs (3 million cells per sample) are subsequently treated with 2% PHA (Sigma-Aldrich, Poole, UK) for 48 hr, followed by a 20 hr exposure to varying concentrations of test compounds. At 2 hr before collection, PBMCs are treated with demecolcine (0.1 μg/mL) (Invitrogen, Paisley, UK,) to arrest cells in metaphase. To observe mitotic cells, PBMCs are permeabilised and fixed by adding Intraprep (50 μL) (Beckman Coulter, France), and stained with anti-phospho-histone 3 (0.26 ng/L) (#9701; Cell Signalling, Danvers, Mass.) and propidium iodide (1 mg/mL) (Sigma-Aldrich, Poole, UK,) as previously described (Muehlbauer P. A. and Schuler M. J., Mutation Research, 2003, 537:117-130). Fluorescence is observed using an ATTUNE flow cytometer (Invitrogen, Paisley, UK), gating for lymphocytes.

[5] = tested on: HRV16; test: HRV16 induced CPE in MRC5 cells; assay type: cell-based, human rhinovirus; conditions: for HRV induced CPE in MRC5 Cells % Inhibition Observed: screened at concentrations up to 0.32 ng/mL; for IC50: Human rhinovirus sp., HRV16, MRC5, read-out: HRV induced CPE in MRC5 Cells IC50
Experimental: The supernatants are aspirated, and then fresh media added followed by incubation for 4 days. Where appropriate, cells are pre-incubated with compound or DMSO for 2 hr, and the compounds and DMSO added again after washout of the virus.
Supernatants are aspirated and incubated with methylene blue solution (100 μL, 2% formaldehyde, 10% methanol and 0.175% Methylene Blue) for 2 hr at RT. […] The percentage inhibition for each well is calculated. The IC50 value is calculated from the concentration-response curve generated by the serial dilutions of the test compounds.

p38 MAPKα, sequence (Q16539 whole entry): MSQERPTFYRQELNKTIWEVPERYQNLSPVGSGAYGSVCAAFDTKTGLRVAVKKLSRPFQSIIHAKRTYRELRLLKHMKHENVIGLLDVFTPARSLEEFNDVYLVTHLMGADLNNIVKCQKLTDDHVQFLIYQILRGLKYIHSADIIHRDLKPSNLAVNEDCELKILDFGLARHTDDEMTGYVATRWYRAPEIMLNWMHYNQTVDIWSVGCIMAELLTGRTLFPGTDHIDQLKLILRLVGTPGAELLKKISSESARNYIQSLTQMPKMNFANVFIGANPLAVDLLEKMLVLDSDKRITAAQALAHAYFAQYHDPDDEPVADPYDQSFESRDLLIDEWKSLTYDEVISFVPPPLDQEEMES

In the case of `Cc1ccc(-n2nc(C(C)(C)C)cc2NC(=O)Nc2ccc(Oc3ccnc(Nc4ccc5c(c4)ncn5C)n3)c3ccccc23)cc1` [Example 4, 1-(3-(tert-Butyl)-1-(p-tolyl)-1H-pyrazol-5-yl)-3-(4-((2-((1-methyl-1H-benzo[d]imidazol-5-yl)amino)pyrimidin-4-yl)oxy)naphthalen-1-yl)urea], the IC50 [1] is reported as 19 nM and the “RSV induced F-protein in HBECs % Inhibition Observed” value [2] is reported as 96%.

`CC(C)(C)c1cc(NC(=O)Nc2ccc(Oc3ccnc(Nc4ccc5[nH]ncc5c4)n3)c3ccccc23)n(-c2ccc(OCCN3CCOCC3)cc2)n1` [Example 12, 1-(4-((2-((1H-Indazol-5-yl)amino)pyrimidin-4-yl)oxy)naphthalen-1-yl)-3-(3-(tert-butyl)-1-(4-(2-morpholinoethoxy)phenyl)-1H-pyrazol-5-yl)urea] was tested, and the “% Inhibition of neutrophil accumulation in BAL” value (“% Inhibition … in BAL” below) [3] was 46%, the “Neutrophil numbers in BAL (+/−SEM)” value [3] was 7.6 ± 1.5 ×10^5/mL and the “Mitosis Assay % inhibition in PBMC cells at 5 μg/mL” value (shortened to “Mitosis Assay % inhibition”) [4] was 58.6%. The “HRV induced CPE in MRC5 Cells % Inhibition Observed” value [5] was 92% and the IC50 [1] was 77 nM.

`Cc1ccc(-n2nc(C(C)(C)C)cc2NC(=O)Nc2ccc(Oc3ccnc(Nc4cccc5cc[nH]c45)n3)c3ccccc23)cc1` [Example 17] was tested, and the IC50 [1] was 376 nM and the “RSV induced F-protein in HBECs % Inhibition Observed” value [2] was 65%.

For `Cc1ccc(-n2nc(C(C)(C)C)cc2NC(=O)Nc2ccc(Oc3ccnc(Nc4ccc5c(ccn5C)c4)n3)c3ccccc23)cc1` [Example 18, 1-(3-(tert-butyl)-1-(p-tolyl)-1H-pyrazol-5-yl)-3-(4-((2-((1-methyl-1H-indol-5-yl)amino)pyrimidin-4-yl)oxy)naphthalen-1-yl)urea], the IC50 [1] was 1360 nM and the “RSV induced F-protein in HBECs % Inhibition Observed” value [2] was 56%.

In the case of `Cc1ccc(-n2nc(C(C)(C)C)cc2NC(=O)Nc2ccc(Oc3ccnc(Nc4ccc5[nH]ncc5c4)n3)c3ccccc23)cc1` [Example 22, 1-(4-((2-((1H-indazol-5-yl)amino)pyrimidin-4-yl)oxy)naphthalen-1-yl)-3-(3-(tert-butyl)-1-(p-tolyl)-1H-pyrazol-5-yl)urea], the “% Inhibition … in BAL” value [3] is reported as 57%, the “Neutrophil numbers in BAL (+/−SEM)” value [3] is reported as 7.0 ± 1.2 ×10^5/mL and the “Mitosis Assay % inhibition” value [4] is reported as 52.7%. The IC50 [1] was 56 nM and the IC50 [2] was 4.6 nM.

`Cc1ccc(-n2nc(C(C)(C)C)cc2NC(=O)Nc2ccc(Oc3cc(Nc4ccc5[nH]ncc5c4)ncn3)c3ccccc23)cc1` [Example 23, 1-(4-((6-((1H-indazol-5-yl)amino)pyrimidin-4-yl)oxy)naphthalen-1-yl)-3-(3-(tert-butyl)-1-(p-tolyl)-1H-pyrazol-5-yl)urea] was tested, and the “Mitosis Assay % inhibition” value [4] was 70.7%, the IC50 [5] was 3 nM and the IC50 [1] was 30 nM.

`Cc1ccc(-n2nc(C(C)(C)C)cc2NC(=O)Nc2ccc(Oc3ccnc(Nc4ccc5cn[nH]c5c4)n3)c3ccccc23)cc1` [Example 24, 1-(4-((2-((1H-indazol-6-yl)amino)pyrimidin-4-yl)oxy)naphthalen-1-yl)-3-(3-(tert-butyl)-1-(p-tolyl)-1H-pyrazol-5-yl)urea] was tested, and the IC50 [1] was 245 nM and the “RSV induced F-protein in HBECs % Inhibition Observed” value [2] was 45%.

`Cc1ccc(-n2nc(C(C)(C)C)cc2NC(=O)Nc2ccc(Oc3ccnc(Nc4ccc5[nH]cnc5c4)n3)c3ccccc23)cc1` [Example 30, 1-(4-((2-((1H-benzo[d]imidazol-5-yl)amino)pyrimidin-4-yl)oxy)naphthalen-1-yl)-3-(3-(tert-butyl)-1-(p-tolyl)-1H-pyrazol-5-yl)urea] was tested, and the IC50 [1] was 89 nM and the “RSV induced F-protein in HBECs % Inhibition Observed” value [2] was 57%.

`Cc1ccc(-n2nc(C(C)(C)C)cc2NC(=O)Nc2ccc(Oc3ccnc(Nc4ccc5ncn(C)c5c4)n3)c3ccccc23)cc1` [Example 31, 1-(3-(tert-butyl)-1-(p-tolyl)-1H-pyrazol-5-yl)-3-(4-((2-((1-methyl-1H-benzo[d]imidazol-6-yl)amino)pyrimidin-4-yl)oxy)naphthalen-1-yl)urea] was tested, and the IC50 [1] was 33 nM and the “RSV induced F-protein in HBECs % Inhibition Observed” value [2] was 73%.

For `Cc1ccc(-n2nc(C(C)(C)C)cc2NC(=O)Nc2ccc(Oc3ccnc(Nc4ccc5scnc5c4)n3)c3ccccc23)cc1` [Example 34, 1-(4-((2-(benzo[d]thiazol-5-ylamino)pyrimidin-4-yl)oxy)naphthalen-1-yl)-3-(3-(tert-butyl)-1-(p-tolyl)-1H-pyrazol-5-yl)urea], the IC50 [1] was 308 nM and the “RSV induced F-protein in HBECs % Inhibition Observed” value [2] was 74%.

In the case of `Cc1ccc(-n2nc(C(C)(C)C)cc2NC(=O)Nc2ccc(Oc3ccnc(Nc4ccc5ncsc5c4)n3)c3ccccc23)cc1` [Example 35, 1-(4-((2-(benzo[d]thiazol-6-ylamino)pyrimidin-4-yl)oxy)naphthalen-1-yl)-3-(3-(tert-butyl)-1-(p-tolyl)-1H-pyrazol-5-yl)urea], the “HRV induced CPE in MRC5 Cells % Inhibition Observed” value [5] is reported as 100%, the IC50 [1] is reported as 439 nM and the “RSV induced F-protein in HBECs % Inhibition Observed” value [2] is reported as 71%.

In the case of `COc1ccc(-n2nc(C(C)(C)C)cc2NC(=O)Nc2ccc(Oc3ccnc(Nc4ccc5[nH]ncc5c4)n3)c3ccccc23)cc1` [Example 40, 1-(4-((2-((1H-indazol-5-yl)amino)pyrimidin-4-yl)oxy)naphthalen-1-yl)-3-(3-(tert-butyl)-1-(4-methoxyphenyl)-1H-pyrazol-5-yl)urea], the “Mitosis Assay % inhibition” value [4] is reported as 30.5%, the IC50 [1] is reported as 68 nM and the IC50 [2] is reported as 4.8 nM.

With `Cc1cc(Nc2nccc(Oc3ccc(NC(=O)Nc4cc(C(C)(C)C)nn4-c4cccc(OCCN5CCOCC5)c4)c4ccccc34)n2)cc2cn[nH]c12` [Example 56, 1-(3-(tert-butyl)-1-(3-(2-morpholinoethoxy)phenyl)-1H-pyrazol-5-yl)-3-(4-((2-((7-methyl-1H-indazol-5-yl)amino)pyrimidin-4-yl)oxy)naphthalen-1-yl)urea] the “% Inhibition … in BAL” value [3] was 38%, the “Neutrophil numbers in BAL (+/−SEM)” value [3] was 10.2 ± 1.9 ×10^5/mL and the IC50 [5] was 6.7 nM. It also gave an IC50 [1] of 46 nM.

In the case of `Cc1cc(Nc2nccc(Oc3ccc(NC(=O)Nc4cc(C(C)(C)C)nn4-c4ccc(=O)n(CCN5CCOCC5)c4)c4ccccc34)n2)cc2cn[nH]c12` [Example 89, 1-(3-(tert-butyl)-1-(1-(2-morpholinoethyl)-6-oxo-1,6-dihydropyridin-3-yl)-1H-pyrazol-5-yl)-3-(4-((2-((7-methyl-1H-indazol-5-yl)amino)pyrimidin-4-yl)oxy)naphthalen-1-yl)urea], the “Mitosis Assay % inhibition” value [4] is reported as 26.7%, the IC50 [5] is reported as 9.6 nM and the IC50 [1] is reported as 47 nM.
